Measurements published in US6723523B2, “System and method for investigating the effect of chemical and other factors on cell movement” (University of Connecticut, priority 2000, dated 2004).

What was measured:
Dictyostelium cells = test: Inhibition of chemotactic response to folic acid by cisplatin, ECIS/taxis; type: cell-based, Dictyostelium discoidium; conditions: increasing concentrations of cisplatin, folic acid as chemoattractant
Method: These chambers were filled with 300 μL of a 0.5% solution of melted agarose prepared as described above. The thickness of the agarose layer is 4 mm. […]

[1] = test system: Dictyostelium discoidium strain NC4A2 cells; test: ECIS/taxis under-agarose chemotaxis assay, cell movement in a folate gradient; type: cell-based
Method: Dictyostelium discoidium strain NC4A2 is an axenic cell line derived from the wild type NC4 line. The myosin II heavy chain mutant (HK323) was generated by homologous recombination to delete the coding portion of the gene in the NC4A2 cell line. Cells were maintained in HL5 media in 100 mm petri dishes with media changes every three days. Cells to be used for experimental procedures were harvested at mid-log phase. Cells were centrifuged at 200×g for 5 minutes at room temperature, re-suspended in fresh media and counted with a Z2 particle counter (Coulter, Miami, Fla.). Chambers were loaded with 10^6 cells per well.
Chemotaxis assays were adapted from the under-agarose chemotaxis method. Briefly, a 0.5% solution of GTG agarose (FMC Corporation, Rockland, Me.) was prepared in 1×SM media (10 g Difco Bacto-Peptone, 10 g glucose, 1 g yeast extract, 1.9 g KH2PO4, 0.6 g K2HPO4, 0.43 g MgSO4 per liter, pH 6.5). For chemokinetic assays, 2×SM agarose media was premixed with an equal volume of 2× folic acid and then added to the chamber to harden.
The chemoattractant folic acid (Research Organics, Inc. Cleveland, Ohio) stock at 100 mM was prepared by dissolving 0.44 g folate in 220 ul of 10 M NaOH. The final volume was adjusted to 10 ml with distilled water. The solution was filter sterilized through a 0.2 micron filter, aliquoted and stored frozen at −20° C. in the dark. The folate solution was adjusted to the appropriate concentration and added to wells one hour prior to the addition of cells to allow for establishment of the chemotactic gradient. […] Following this incubation, the cells were washed three times in PDF and then re-suspended in PDF before placement in the cell wells of ECIS/taxis chambers.
The commercially available ECIS electrode configuration (Applied Biophysics, Inc., Troy, N.Y.) consists of 8 chambers per array, each with a large electrode and a small target electrode (see panel A of FIG. 2). These chambers were filled with 300 μL of a 0.5% solution of melted agarose prepared as described above. […]
The chemoattractant was then loaded into one well in appropriate chambers and the gradient was allowed to form for one hour. […] Impedance to this current flow was measured and a resistance value was calculated according to established protocols. […] In the results presented below, the data is presented as normalized resistance, which is calculated as a fraction of the initial resistance of the chamber at the start of the experiment.
A gradient was established by loading 1 mM folate into the chemoattractant well of a modified ECIS chamber, and one hour later Dictyostelium cells were placed in the adjacent cell well. […] In order to visualize the arrival of the cells at the target electrode, the cells exposed to folate were continuously monitored by video microscopy. […]

Compound | effect on time of arrival of cells at the electrode (Dictyostelium cells) | absolute number of cells that arrive at the electrode versus folate dose ([1]; folate 0.16 to 1 mM in chemoattractant well) | time of arrival of cells at the target electrode after placement of cells in the cell well ([1]; gradient formed by 1 mM folate) | average speed of cell movement to the target electrode ([1]; gradient from 1 mM folate) | time of first small resistance peak (initial cell spreading on the target electrode) ([1]; gradient from 1 mM folate in chemoattractant well, loaded 1 h before cells, wells 2 mm from electrode) [h]
N.N.[Cl][Pt][Cl] [cisplatin, Cisplatin] | delayed in a manner proportional to the dose of cisplatin | – | – | – | –
Nc1nc2ncc(CNc3ccc(C(=O)N[C@@H](CCC(=O)O)C(=O)O)cc3)nc2c(=O)[nH]1 [folate, folic acid] | – | absolute number of cells that arrive decreases as the dose of folate used to establish the gradient decreases | approximately 3.5 hours | approximately 10 μm/min | 3.75
